How the values were obtained:
[1] = target: T1, BRD4-BD1 (Homo sapiens, UniProt O60885); experiment: Binding affinity to BRD4-BD1 (bromoKdELECT assay); conditions: 11-point 3-fold dilution series
T1 construct: made in house; host or cells: T7 phage grown in an E. coli host derived from the BL21 strain
Protocol: (§1) Compounds were tested using a bromoKdELECT assay. T7 phage strains displaying bromodomains were grown in parallel in 24-well blocks in an E. coli host derived from the BL21 strain. E. coli were grown to log-phase and infected with T7 phage from a frozen stock (multiplicity of infection=0.4) and incubated with shaking at 32° C. until lysis (90-150 minutes). The lysates were centrifuged (5,000×g) and filtered ([…]) to remove cell debris. Streptavidin-coated magnetic beads were treated with biotinylated small molecule or acetylated peptide ligands for 30 minutes at room temperature to generate affinity resins for bromodomain assays. The liganded beads were blocked with excess biotin and washed with blocking buffer (SeaBlock (Pierce), 1% BSA, 0.05% Tween 20, 1 mM DTT) to remove unbound ligand and to reduce nonspecific phage binding. Binding reactions were assembled by combining bromodomains, liganded affinity beads, and test compounds in 1× binding buffer (17% SeaBlock, 0.33×PBS, 0.04% Tween 20, 0.02% BSA, 0.004% Sodium azide, 7.4 mM DTT). Test compounds were prepared as 1000× stocks in 100% DMSO. Kds were determined using an 11-point 3-fold compound dilution series with one DMSO control point. All compounds for Kd measurements are distributed by acoustic transfer (non-contact dispensing) in 100% DMSO. The compounds were then diluted directly into the assays such that the final concentration of DMSO was 0.09%. All reactions performed in polypropylene 384-well plates. Each was a final volume of 0.02 ml. The assay plates were incubated at room temperature with shaking for 1 hour and the affinity beads were washed with wash buffer (1×PBS, 0.05% Tween 20). The beads were then resuspended in elution buffer (1×PBS, 0.05% Tween 20, 2 M non-biotinylated affinity ligand) and incubated at room temperature with shaking for 30 minutes. The bromodomain concentration in the eluates was measured by qPCR.

[2] = test system: VCaP cells; experiment: Cellular growth inhibition assay for VCaP cells, CellTiter-Glo; type: cell-based, human; conditions: 72 hours
Procedure, shortened: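 GI50 values come from four-parameter curve fits of luminescence data normalized to a zero baseline. Compound, in medium with 0.5% DMSO, was added one day after plating and left for 72 h before CellTiter-Glo 2.0 addition.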

[3] = target: T2, BRD4-BD2 (Homo sapiens, UniProt O60885); experiment: Binding affinity to BRD4-BD2 (bromoKdELECT assay); conditions: 11-point 3-fold dilution series
T2 construct: made in house; host or cells: T7 phage grown in an E. coli host derived from the BL21 strain
Protocol: as §1, with “2 μM” for “2 M”

| Kd [1] | GI50 ([2]; Homo sapiens) | Kd [3] | GI50 [2] | Compound |
| --- | --- | --- | --- | --- |
| > 2500 nM | < 500 nM | > 2500 nM | – | Cn1cc(-c2ccccc2Oc2cccc(OCCOC3CCN(c4ncc(C(=O)N[C@H]5C(C)(C)[C@H](Oc6ccc(C#N)c(Cl)c6)C5(C)C)cn4)CC3)c2)c2cc[nH]c2c1=O [Compound I-61, N-((1r, 3r)-3-(3-chloro-4-cyanophenoxy)-2,2,4,4-tetramethylcyclobutyl)-2-(4-(2-(3-(2-(6-methyl-7-oxo-6,7-dihydro-1H-pyrrolo[2,3-c]pyridin-4-yl)phenoxy)phenoxy)ethoxy)piperidin-1-yl)pyrimidine-5-carboxamide] |
| 50 to 500 nM | < 500 nM | 50 to 500 nM | – | CCS(=O)(=O)Nc1ccc(Oc2cccc(N3CC(OC4CCN(c5ncc(C(=O)N[C@H]6C(C)(C)[C@H](Oc7ccc(C#N)c(Cl)c7)C6(C)C)cn5)CC4)C3)c2)c(-c2cn(C)c(=O)c3[nH]ccc23)c1 [Compound I-80] |
| > 2500 nM | < 500 nM | > 2500 nM | – | Cn1cc(-c2ccccc2Oc2cccc(N3CC(N4CCN(c5ncc(C(=O)N[C@H]6C(C)(C)[C@H](Oc7ccc(C#N)c(Cl)c7)C6(C)C)cn5)CC4)C3)c2)c2cc[nH]c2c1=O [Compound I-90, N-((1r, 3r)-3-(3-chloro-4-cyanophenoxy)-2,2,4,4-tetramethylcyclobutyl)-2-(4-(1-(3-(2-(6-methyl-7-oxo-6,7-dihydro-1H-pyrrolo[2,3-c]pyridin-4-yl)phenoxy)phenyl)azetidin-3-yl)piperazin-1-yl)pyrimidine-5-carboxamide] |
| 500 to 2500 nM | < 500 nM | < 50 nM | – | CCS(=O)(=O)Nc1ccc(Oc2ccc(F)c(OCCOC3CCN(c4ncc(C(=O)N[C@H]5C(C)(C)[C@H](Oc6ccc(C#N)c(Cl)c6)C5(C)C)cn4)CC3)c2F)c(-c2cn(C)c(=O)c3[nH]ccc23)c1 [Compound I-65] |
| > 2500 nM | < 500 nM | 50 to 500 nM | – | CN(CCCc1ccc(Oc2ccc(C(C)(C)O)cc2-c2cn(C)c(=O)c3[nH]ccc23)cc1)c1ncc(C(=O)N[C@H]2C(C)(C)[C@H](Oc3ccc(C#N)c(Cl)c3)C2(C)C)cn1 [Compound I-211] |
| 500 to 2500 nM | > 3000 nM | 50 to 500 nM | – | Cn1cc(-c2ccccc2Oc2cccc(N3CC(N4CCN(c5ncc(C(=O)N[C@H]6C(C)(C)[C@H](Oc7ccc(C#N)c(Cl)c7)C6(C)C)cn5)CC4)C3)c2F)c2cc[nH]c2c1=O [Compound I-94] |
| < 50 nM | < 500 nM | < 50 nM | – | CCS(=O)(=O)Nc1ccc(Oc2cccc(N(C)C3CN(CC4CCN(c5ncc(C(=O)NC6C(C)(C)C(Oc7ccc(C#N)c(Cl)c7)C6(C)C)cn5)CC4)C3)c2)c(-c2cn(C)c(=O)c3[nH]ccc23)c1 (stereo not drawn) [Compound I-39] |
| 500 to 2500 nM | < 500 nM | 50 to 500 nM | – | CN(c1ccc(Oc2cccc(N3CC(N4CCN(c5ncc(C(=O)N[C@H]6C(C)(C)[C@H](Oc7ccc(C#N)c(Cl)c7)C6(C)C)cn5)CC4)C3)c2)c(-c2cn(C)c(=O)c3[nH]ccc23)c1)S(=O)(=O)C1CC1 [Compound I-88, N-((1r, 3r)-3-(3-chloro-4-cyanophenoxy)-2,2,4,4-tetramethylcyclobutyl)-2-(4-(1-(3-(2-(6-methyl-7-oxo-6,7-dihydro-1H-pyrrolo[2,3-c]pyridin-4-yl)-4-(N-methylcyclopropanesulfonamido)phenoxy)phenyl)azetidin-3-yl)piperazin-1-yl)pyrimidine-5-carboxamide] |
| – | < 500 nM | – | – | Cn1cc(-c2cc(C(C)(C)O)ccc2Oc2ccc(N3CC(CC4CN(c5ncc(C(=O)N[C@H]6C(C)(C)[C@H](Oc7ccc(C#N)c(Cl)c7)C6(C)C)cn5)C4)C3)cc2)c2cc[nH]c2c1=O [Compound I-280] |
| – | < 500 nM | – | – | CCS(=O)(=O)Nc1ccc(Oc2cccc(OCCOC3CCN(c4cnc(C(=O)N[C@H]5C(C)(C)[C@H](Oc6ccc(C#N)c(Cl)c6)C5(C)C)cn4)CC3)c2)c(-c2cn(C)c(=O)c3[nH]ccc23)c1 [Compound I-71, N-((1r, 3r)-3-(3-chloro-4-cyanophenoxy)-2,2,4,4-tetramethylcyclobutyl)-5-(4-(2-(3-(4-(ethylsulfonamido)-2-(6-methyl-7-oxo-6,7-dihydro-1H-pyrrolo[2,3-c]pyridin-4-yl)phenoxy)phenoxy)ethoxy)piperidin-1-yl)pyrazine-2-carboxamide] |
| – | < 500 nM | – | – | Cn1cc(-c2cc(C(C)(C)O)ccc2Oc2ccc(CCCC3CC4(C3)CN(c3ncc(C(=O)N[C@H]5C(C)(C)[C@H](Oc6ccc(C#N)c(Cl)c6)C5(C)C)cn3)C4)cc2)c2cc[nH]c2c1=O [Compound I-268] |
| – | < 500 nM | – | – | Cn1cc(-c2cc(N)ccc2Oc2cccc(OCCC3CCN(c4ncc(C(=O)N[C@H]5C(C)(C)[C@H](Oc6ccc(C#N)c(Cl)c6)C5(C)C)cn4)CC3)c2)c2cc[nH]c2c1=O [Compound I-101] |
| – | < 500 nM | – | – | CCS(=O)(=O)Nc1ccc(Oc2cccc(N3CC(N(C)C4CN(c5ncc(C(=O)N[C@H]6C(C)(C)[C@H](Oc7ccc(C#N)c(Cl)c7)C6(C)C)cn5)C4)C3)c2)c(-c2cn(C)c(=O)c3[nH]ccc23)c1 [Compound I-120] |
| – | 500 to 1500 nM | – | – | Cn1cc(-c2cc(C(C)(C)O)ccc2Oc2ccc(CC3CCN(c4ncc(C(=O)N[C@H]5C(C)(C)[C@H](Oc6ccc(C#N)c(Cl)c6)C5(C)C)cn4)CC3)cc2)c2cc[nH]c2c1=O [Compound I-201] |
| – | < 500 nM | – | – | Cn1cc(-c2cc(N)ccc2Oc2cccc(N3CC(N4CCN(c5ncc(C(=O)N[C@H]6C(C)(C)[C@H](Oc7ccc(C#N)c(Cl)c7)C6(C)C)cn5)CC4)C3)c2F)c2cc[nH]c2c1=O [Compound I-93] |
| – | < 500 nM | – | – | Cn1cc(-c2cc(C(C)(C)O)ccc2Oc2cccc(N3CC4(CN(c5ncc(C(=O)N[C@H]6C(C)(C)[C@H](Oc7ccc(C#N)c(Cl)c7)C6(C)C)cn5)CCO4)C3)c2F)c2cc[nH]c2c1=O [Compound I-216] |
| – | 500 to 1500 nM | – | – | CN(C1CCN(c2ncc(C(=O)N[C@H]3C(C)(C)[C@H](Oc4ccc(C#N)c(Cl)c4)C3(C)C)cn2)CC1)C1CN(c2ccc(Oc3ccc(C(C)(C)O)cc3-c3cn(C)c(=O)c4[nH]ccc34)cc2)C1 [Compound I-208] |
| – | 500 to 1500 nM | – | – | Cn1cc(-c2cc(C(C)(C)O)ccc2Oc2ccc(OCC3CCN(c4ncc(C(=O)N[C@H]5C(C)(C)[C@H](Oc6ccc(C#N)c(Cl)c6)C5(C)C)cn4)CC3)cc2)c2cc[nH]c2c1=O [Compound I-202] |
| – | – | – | < 500 nM | CCS(=O)(=O)c1ccc(Oc2cccc(OCCN3CCN(c4ncc5c(n4)CN([C@H]4C(C)(C)[C@H](Oc6ccc(C#N)c(Cl)c6)C4(C)C)C5=O)CC3)c2F)c(-c2cn(C)c(=O)c3[nH]ccc23)c1 [Compound I-217] |
| – | < 500 nM | – | – | CCS(=O)(=O)N(C)c1ccc(Oc2cccc(N3CCN(C4CN(c5ncc(C(=O)N[C@H]6C(C)(C)[C@H](Oc7ccc(C#N)c(Cl)c7)C6(C)C)cn5)C4)CC3)c2)c(-c2cn(C)c(=O)c3[nH]ccc23)c1 [Compound I-118] |
| – | – | – | < 500 nM | CCS(=O)(=O)Nc1ccc(Oc2cccc(N3CC(CC4CN(c5ncc(C(=O)N[C@H]6C(C)(C)[C@H](Oc7ccc(C#N)c(Cl)c7)C6(C)C)cn5)C4)C3)c2)c(-c2cn(C)c(=O)c3[nH]ccc23)c1 [Compound I-158] |
| – | < 500 nM | – | – | CCS(=O)(=O)Nc1ccc(Oc2cccc(CCN3CC4CN(c5ncc(C(=O)N[C@H]6C(C)(C)[C@H](Oc7ccc(C#N)c(Cl)c7)C6(C)C)cn5)CC4C3)c2)c(-c2cn(C)c(=O)c3[nH]ccc23)c1 (stereo partly drawn) [Compound I-119] |
| – | < 500 nM | – | – | Cn1cc(-c2cc(N)ccc2Oc2cccc(OCCN3CCN(c4ncc(C(=O)N[C@H]5C(C)(C)[C@H](Oc6ccc(C#N)c(Cl)c6)C5(C)C)cn4)CC3)c2F)c2cc[nH]c2c1=O [Compound I-100] |

Reference: patent publication US20250388605A1, “HETEROBIFUNCTIONAL COMPOUNDS AND METHODS OF TREATING DISEASE” (Halda Therapeutics OpCo, Inc., priority 2022, published 2025)
